Laboratory results as given in publication PMC8369945 (Hepatology Communications, 2021).
Entries after “also recorded” stand apart in the source; their conditions may differ.

Assays:
db/db mice = assay: db/db mouse model of T2DM; format: in vivo; conditions: 10 days once daily p.o., pio 30, PXL065 20, d-S-pio 20 mg/kg
[1] = tested on: C57BL/6J mice on CD or MCD diet; assay: Choline-deficient; format: in vivo, mouse; conditions: for markers of NASH progression: two diet models (d-S-pio only CD)
C57BL/6J male mice = assay: Weight gain study in mouse; format: in vivo; conditions: normal C57BL/6J male mice, pio 30, PXL065 15, d-S-pio 15 mg/kg/day, twice daily; for body weight versus vehicle: after 10 days of dosing
[2] = Phase 1a clinical study, pharmacokinetics in healthy subjects; conditions: human, single 22.5 mg PXL065
PPARα = target: T1, PPARα (Homo sapiens, UniProt Q07869); assay: PPARα coactivator recruitment
T1 sequence (Q07869 1-468): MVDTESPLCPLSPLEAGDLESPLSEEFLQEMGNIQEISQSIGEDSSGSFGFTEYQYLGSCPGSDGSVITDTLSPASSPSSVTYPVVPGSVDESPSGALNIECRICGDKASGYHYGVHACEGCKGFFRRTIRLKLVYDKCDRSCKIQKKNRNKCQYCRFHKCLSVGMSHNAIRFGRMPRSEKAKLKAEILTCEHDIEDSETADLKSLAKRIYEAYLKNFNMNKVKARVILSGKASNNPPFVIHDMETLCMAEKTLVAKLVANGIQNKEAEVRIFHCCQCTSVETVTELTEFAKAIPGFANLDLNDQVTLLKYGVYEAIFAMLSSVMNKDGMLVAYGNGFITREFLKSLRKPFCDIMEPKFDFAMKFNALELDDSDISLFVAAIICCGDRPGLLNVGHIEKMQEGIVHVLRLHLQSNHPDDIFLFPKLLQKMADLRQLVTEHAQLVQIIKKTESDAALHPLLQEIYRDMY

PPARδ = target: T2, PPARδ (Homo sapiens, UniProt Q03181); assay: PPARδ coactivator recruitment
T2 sequence (Q03181 1-441): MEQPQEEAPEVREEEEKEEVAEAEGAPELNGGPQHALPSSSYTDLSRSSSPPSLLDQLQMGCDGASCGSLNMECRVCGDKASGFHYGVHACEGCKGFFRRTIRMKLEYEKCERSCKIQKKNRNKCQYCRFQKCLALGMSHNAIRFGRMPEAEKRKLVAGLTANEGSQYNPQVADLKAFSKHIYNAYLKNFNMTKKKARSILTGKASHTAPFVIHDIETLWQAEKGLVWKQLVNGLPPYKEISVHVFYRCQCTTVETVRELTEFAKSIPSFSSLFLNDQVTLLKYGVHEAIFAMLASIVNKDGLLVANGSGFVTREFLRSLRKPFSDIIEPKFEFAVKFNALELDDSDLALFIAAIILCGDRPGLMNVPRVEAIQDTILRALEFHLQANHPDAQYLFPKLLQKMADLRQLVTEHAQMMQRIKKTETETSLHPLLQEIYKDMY

Row | SMILES | inflammatory markers serum amyloid A, IL-1β and IL-6 (db/db mice) | serum adiponectin (db/db mice) | adiponectin ([1]; CD diet mice) | reduction of hepatic steatosis and triglycerides, compared with pioglitazone ([1]; CD diet mice) | markers of NASH progression [1] | body weight versus vehicle (C57BL/6J male mice) | exposure to (R)-pioglitazone, higher than in the 45-mg Actos group [2] [%] | exposure to the (S)-enantiomer, lower than in the 45-mg Actos group [2] [%] | serum insulin (db/db mice) | hepatic fibrosis ([1]; either diet) | fluid retention (total body water) (C57BL/6J male mice) | agonist activity at PPARα (PPARα) | body-weight loss compared with vehicle- or PXL065-treated animals ([1]; MCD diet) | agonist activity at PPARδ (PPARδ)
1 | [2H][C@]1(Cc2ccc(OCCc3ccc(CC)cn3)cc2)SC(=O)NC1=O [PXL065, deuterated (R)‐pioglitazone] | significantly decreased | nonsignificant trend | increase | superior to pioglitazone | significantly affected all markers of NASH progression | did not increase body weight | 19 | 42 | – | – | – | – | – | –
2 | [2H][C@@]1(Cc2ccc(OCCc3ccc(CC)cn3)cc2)SC(=O)NC1=O [d‐S‐pio, deuterated (S)‐pioglitazone] | no effect | significantly increased | increase | – | overall without effect | significantly increased body weight over vehicle | – | – | trend toward significant reduction | antifibrotic effect similar to that observed with PXL065 and pioglitazone | trend was observed for increased fluid retention; also recorded: a trend was observed | – | – | –
3 | CCc1ccc(CCOc2ccc(CC3SC(=O)NC3=O)cc2)nc1 (centres unmarked) [pioglitazone, reference compound] | significantly decreased | significantly increased | increase | – | significantly affected all markers of NASH progression | significantly increased body weight over vehicle | – | – | significantly decreased | – | trend was observed for increased fluid retention; also recorded: significant increase in total body water | Neither pioglitazone, PXL065, nor d‐S‐pio showed binding to PPARα or agonist activity at PPARα or PPARδ | weight loss tended to be less | Neither pioglitazone, PXL065, nor d‐S‐pio showed binding to PPARα or agonist activity at PPARα or PPARδ
